Laboratory results: patent publication US20250144127A1, “LONG-CHAIN COMPOUND AND USE THEREOF” (Burgeon Therapeutics Co., Ltd., priority 2021, published 2025)

Assays:
[1] = system: ACLY knockdown primary hepatocytes; experiment: De novo lipid synthesis in ACLY knockdown primary hepatocytes, [14C]-citric acid tracer; format: cell-based, mouse; details: [14C]-citric acid substrate
Excerpt: Test protocol: In order to further investigate the dependence of the inhibitory effect of the series of compounds on de novo lipid synthesis on ACLY, the inventors chose ACLY knockdown primary hepatocytes for further evaluation of de novo lipid synthesis, while compound ETC-1002 was used as a positive control. Specifically, the experimental protocol was as above, and 0.1 μCi/well [^14C]-citric acid was used for tracing.

[2] = system: primary mouse hepatocytes; experiment: Inhibition of de novo lipid synthesis in primary hepatocytes, [1,2-14C]-sodium acetate tracer; format: cell-based; details: Hepatocyte, compound 12.5 μM, 4 h, [1,2-14C]-acetate, read-out: Lipid synthesis inhibition (%) (mean ± SD)
Description: Primary hepatic cell isolation and walling: the mouse liver was lavaged by calcium-free perfusate, then digested using collagenase and mouse primary hepatocytes were obtained by density gradient centrifugation, and were inoculated in 6-well plates at a density of 3×10^5/ml (0.2% gelatin was coated before inoculating). After inoculating, the cells were cultured and adhered for 6 h. The medium was changed to serum-free LG-DMEM (containing 2× double antibody) and starved the cells overnight.
Isotope tracing: the next day, the medium was switched to serum-free LG-DMEM containing 10 nM insulin and the corresponding concentration of compounds (1950 μL, 4 replicate wells per group); 0.1 μCi of [1,2-^14C]-acetate serum-free medium was added to each well, and the plates were then incubated for 4 h in the incubator.
Lipid saponification: Add 1.6 mL of ice PBS to each well for washing 3 times, shake the plate to dry and add 600 μL of 0.5 M KOH to each well to lysis for 1 h. Pipette 480 μL into a glass test tube with 400 μL of 20% KOH (methanol was used as solvent), shake and mix well, and then place it in a water bath at 95° C. to saponify for 3 h. The remaining lysate was used for the determination of the concentration of proteins. Add 400 μL of petroleum ether to each tube, pipette 5-6 times and centrifuge at 2500 rpm for 5 min, take 350 μL of the upper layer of the clear solution to the EP tube, and then add 400 μL of petroleum ether to repeat the extraction for 2 times (a total of 3 times). After complete transfer of the supernatant, 200 μL of water and 400 μL of 5N sulfuric acid were added to each tube for acidification, and the mixture was shaken and mixed. Add 400 μL of petroleum ether to each tube, pipette 5-6 times and centrifuge at 2500 rpm for 5 min, take 350 μL of the upper layer of the clear solution to the EP tube, then add 400 μL of petroleum ether and repeat the extraction for 2 times (a total of 3 times). Place in a fume hood and evaporate the petroleum ether overnight.
Isotope participation quantification: 1700 μL of scintillation solution was added to each tube and read.
Data processing and analysis: Firstly, the isotopic reference (R control, unit: CCPM/mg protein) of free fatty acids and cholesterol was calculated for the Control group of untreated mouse primary hepatocytes within 4 hours, which represented the basal synthesis. The percent inhibition of lipid synthesis was then calculated for each concentration group of the sample.

golden hamster = experiment: High-fat and high-cholesterol diet-induced hyperlipidemia model of golden hamster; format: in vivo; details: 1 time/day, 7 days, vs control group
Excerpt: Dosing regimen: The hyperlipidemia model of golden hamster is recognized as one of the ideal animal models for studying hyperlipidemia drug therapy (pharmacodynamic evaluation). In order to preliminarily investigate the existence of potential regulatory effects of the candidate compounds on hepatic lipid metabolism homeostasis, the high-fat and high-cholesterol diet-induced hyperlipidemia model of golden hamster was utilized for preliminary pharmacodynamic evaluation. The specific protocol was as follows. 56 golden hamsters, males, were modeled on high-fat and high-cholesterol diet (Research diet, item number C11953) for two weeks, and 8 golden hamsters were reserved as blank control group. Subsequently, group administration (7 groups, n=8) was performed, i.e., model control group, positive control ETC-1002 30 mg/kg group, compound A3 10 mg/kg and 30 mg/kg group, compound A4 10 mg/kg and 30 mg/kg group, and blank control group. The compounds in each group were configured with saline (0.9% NaCl) and administered at a frequency of 1 time/day for a 7-day dosing cycle.
Indicator test: The body weight and food intake of golden hamsters were closely monitored during the administration period. After 7 days of administration, blood was collected from the orbital region of each group (starved overnight for about 16 hours), centrifuged to obtain serum, and stored in cryopreservation, and then total cholesterol and LDL cholesterol were detected in the serum. The relative amount of the relevant indexes was calculated as follows: Relative amount (100%)=the amount in the administered group/the amount in the model control group*100%.

ob/ob mice = experiment: NASH induced by high-fat, high-sugar, high-cholesterol diet in ob/ob mice; format: in vivo, mouse; details: 30 mg/kg, 1 time/day, 10 weeks
Description: Dosing regimen: 16 ob/ob mice, males, 7-8 weeks, were equally divided into 2 groups (n=8) and fed with high-fat, high-sugar, high-cholesterol diet (Research diet, item number D09100310) for 8 weeks for modeling, and a group of wild-type mice from the same litter was set up as a blank control group. Long-term drug administration was started after 8 weeks of modeling and the groups were model control group, compound A3 30 mg/kg group, and blank control group. The compounds in each group were prepared in saline (0.9% NaCl) and administered at a frequency of 1 time/day for 10 weeks.
Indicator test: The body weight and feeding changes of ob/ob mice and blank control mice were closely monitored during the administration period. After 10 weeks of administration, the livers of each group were taken and tested for NASH indicators (HE staining, Sirius red staining, immunohistochemistry for inflammatory signals, etc.).

[3] = system: primary hepatocytes from WT mice; experiment: De novo lipid synthesis in WT primary hepatocytes, [14C]-citric acid tracer; format: cell-based; details: WT mouse hepatocytes, [14C]-citric acid substrate
ApoE−/− mice = experiment: Atherosclerosis in ApoE-/- mice on high cholesterol chow, aortic plaque Sudan IV staining; format: in vivo, mouse
Description: Dosing regimen: Hypercholesterolemia is an important trigger for the development of atherosclerosis. […] The specific scheme is as follows. 60 ApoE^−/− mice, males, were equally divided into 6 groups (n=10), of which 5 groups were fed with high cholesterol chow (Research diet, item no. D12079B) for modeling, and 1 group was set aside as a blank control group, while long-term administration of the drug was carried out, i.e., the model control group, the positive control ETC-1002 30 mg/kg group, and the compounds A3 15 mg/kg and 30 mg/kg and 60 mg/kg groups, and blank control group. The compounds in each group were configured with saline (0.9% NaCl) and administered at a frequency of 1 time/day for a 24-week dosing cycle.
Indicator test: The body weight and food intake of ApoE^−/− mice were closely monitored during the administration period. After 24 weeks of compound administration in each group, the aortic vessels of mice were stripped and Sudan IV staining of aortic plaques was performed, and the plaque area was counted with Image-Pro Plus software.

CC(C)(CCCC/C=C/CCCCCC(C)(C)C(=O)O)C(=O)O [Compound A3]
inhibitory effect on de novo synthesis of cholesterol [1]: significantly attenuated or even the inhibitory effect was not manifested | inhibitory effect on de novo synthesis of triglycerides [1]: significantly attenuated or even the inhibitory effect was not manifested | inhibition at 12.5 µM [2]: 71.2 ± 4.3% | serum LDL cholesterol (golden hamster; 10 mg/kg): significantly reduce | serum total cholesterol (golden hamster; 10 mg/kg): significantly reduce | serum LDL cholesterol (golden hamster; 30 mg/kg): significantly reduce | serum total cholesterol (golden hamster; 30 mg/kg): significantly reduce | liver whitening and granulomatous sensation due to excessive lipid accumulation (ob/ob mice): significantly reversed | degree of hepatic collagen deposition (Sirius red staining) (ob/ob mice; vs model control): significantly reduced | hepatic inflammatory cell infiltration (macrophage CD68 staining) (ob/ob mice; vs model control): significantly reduced | liver steatosis and ballooning (H & E staining) (ob/ob mice; vs model control): significantly reduced | de novo synthesis of triglycerides ([3]; FIG. 1 A): significantly inhibited | de novo synthesis of cholesterol ([3]; FIG. 1 B): significantly inhibited | area of aortic plaque (ApoE−/− mice; 15, 30 and 60 mg/kg groups, 1 time/day, 24 weeks, vs control group): significantly reduced | improving atherosclerosis compared with ETC-1002 (ApoE−/− mice; statement on previous studies): significantly better than ETC-1002
